Active and inactive are the calls of the source. No cut-off for these calls is given here.

Assay [1] concerns 3Y1 cell line. The assay can be described thus: Induction of morphological changes in rat 3Y1 cells assessed as elongation of cells. The class given is functional, cell-based.
Assay [2] relates to 3Y1 cell line. The assay can be described thus: Cytotoxicity against rat 3Y1 cells after 72 hrs by MTT assay. The format is functional, cell-based. As to conditions: 3Y1, 72 h. (In general: Formazan colour is commonly taken as a measure of viable cells.)

The term IC50 denotes the concentration at which inhibition is half-maximal. Read a low IC50 as inhibition by little substance. Regarding `C/C1=C\CC(O)C(C)C(C(NC(=O)C(C)C(O)CCC(C)C(O)/C(C)=C/C(C)(C)C(O)C(CC(C)C)NC(=O)/C=C/C(C)(C)C(=O)C(C)C(O)C(C)C)C(C)O)OC(=O)[C@H](O)[C@H](C(=O)O)NC(=O)/C=C/C=C/C=C/C=C/C=C/CC2CC(C)CC(CC(O)C(C)C(O)/C(C)=C/C(C)C1O)O2` (stereo partly drawn), the outcome with 3Y1 cell line [1] was Active. In the assay on 3Y1 cell line [2], the IC50 stood at 4.1 nM. As to `CO/C1=C\C(C)=C\[C@@H](C)[C@@H](O)[C@@H](C)C/C(C)=C/C=C/[C@H](OC)[C@@H]([C@@H](C)[C@@H](O)[C@H](C)[C@@]2(O)C[C@@H](O)[C@H](C)[C@@H](C(C)C)O2)OC1=O`, the outcome in the assay with 3Y1 cell line [1] was Active.

The values are drawn from ChEMBL document CHEMBL4145563, “Poecillastrin H, a Chondropsin-Type Macrolide with a Conjugated Pentaene Moiety, from a Characella sp. Marine Sponge” (J Nat Prod, 2018).
